We go through 3 molecules from patent US11007250B2, “Methods and kits for treating pain” (Duke University, priority 2017, dated 2021).

One experiment deals with naive mice. The experiment is described as follows: Basal pain in naive mice (von Frey test, spontaneous pain). It is filed as in vivo, mouse.
The test system of experiment [1] is dissociated small-diameter mouse DRG neurons. The experiment is described as follows: Whole-cell patch clamp recordings in dissociated mouse DRG neurons. It is filed as cell-based. Particulars: SSG 11 μM. Here is the method:
Whole-cell patch clamp recordings in dissociated mouse DRG neuron. DRGs were aseptically removed from 4-7 week-old mice and digested with collagenase (0.2 mg/ml, Roche)/dispase-II (3 mg/ml, Roche) for 120 min. Cells were placed on glass cover slips coated with poly-D-lysine and grown in a neurobasal defined medium (10% fetal bovine serum and 2% B27 supplement) at 37° C. with 5% CO2/95% air for 24 h before experiments. Whole-cell voltage clamp recordings were performed at room temperature to measure transient sodium currents and action potentials, respectively, with an EPC10 amplifier (HEKA) and an Axopatch-200B amplifier with a Digidata 1440A (Axon Instruments) (Xu, Z Z, et al. 2015). The patch pipettes were pulled from borosilicate capillaries (Chase Scientific Glass Inc.). When filled with the pipette solution, the resistance of the pipettes was 4-5 MQ. The recording chamber (300 μl) was continuously superfused (3-4 ml/min). Series resistance was compensated for (>80%), and leak subtraction was performed. Data were low-pass-filtered at 2 KHz, sampled at 10 KHz. The pClamp10 (Axon Instruments) software was used during experiments and analysis. For sodium current recording, pipette solution contained (in mM): CsCl 130, NaCl 9, MgCl2 1, EGTA 10, HEPES 10, adjusted to pH 7.4 with CsOH. […] RMP was measured without a current injection.
In general terms: In patch-clamp work, channel activity is measured electrically.

Experiment [2] deals with phosphorylation of SHP-1 (pSHP-1). The experiment is described as follows: pSHP-1 immunostaining in mouse DRG neurons. The note with it: dissociated DRG neurons; PD-L1 10 ng/ml, SSG 11 μM. The experiment is classed as cell-based.
In experiment [3] the test system is TREK2 in CHO cells co-expressing PD-1 and TREK2. Briefly: Patch clamp recordings in transfected CHO cells. It is filed as cell-based. The note with it: SSG. Here is the method: CHO cell culture, transfection and electrophysiology. CHO cell line was purchased from Duke Cell Culture Facility. Cells were cultured in high glucose (4.5 g/L) Dulbecco's Modified Eagle's Medium containing 10% (v/v) fetal bovine serum (Gibco). Transfection (1 μg cDNA) was performed with Lipofectamine™ 2000 Reagent (Invitrogen) at 70% confluency and the transfected cells were cultured in the same growth medium for 48 h before electrophysiological and biochemical studies. PD1/PDCD1 cDNA construct (SC117011, NM_005018) and TREK2/KCNK10 cDNA construct (SC110477, NM_021161) were purchased from Origene Technologies.
Whole-cell patch clamp recordings in transfected CHO cells were conducted at room temperature using patch pipettes with resistances of 5-6 MD. The recording chamber was continuously superfused (3-4 ml/min). The data were acquired at a rate of 10 kHz and filtered at 3 kHz using an EPC-10 amplifier (HEKA, Germany). Pipette solution contained (in mM): K-gluconate 126, NaCl 10, MgCl2 1, EGTA 10, NaATP 2, and MgGTP 0.1, adjusted to pH 7.3 with KOH. The external solution was composed of (in mM): NaCl 140, KCl 5, CaCl2 2, MgCl2 1, HEPES 10, glucose 10, adjusted to pH 7.4 with NaOH. […] In current-clamp experiments, the resting membrane potential was measured without any membrane potential compensation.

Experiment [4] has as its system small-diameter human DRG neurons. The experiment is described as follows: Patch clamp recordings in dissociated human DRG neurons. It is filed as cell-based. Particulars: SSG 11 μM. Here is the method: Primary cultures and patch clam recordings in human DRG neurons. Non-diseased human DRGs were obtained from donors through NDRI with permission of exemption from Duke IRB. Postmortem L3-L5 DRGs were dissected from 5 male donors at the age of 27, 31, 43, 54, and 67 and delivered in ice-cold culture medium to the laboratory at Duke University within 24-72 hours of death. Upon the delivery, DRGs were rapidly dissected from nerve roots and minced in a calcium-free HBSS (Gibco). Human DRG cultures were prepared as previously reported (Xu, Z Z, et al. 2015). DRGs were digested at 37° C. in humidified O2 incubator for 120 min with collagenase Type II (Worthington, 285 units/mg, 12 mg/ml final concentration) and dispase II (Roche, 1 unit/mg, 20 mg/ml) in PBS with 10 mM HEPES, pH adjusted to 7.4 with NaOH. DRGs were mechanically dissociated using fire-polished pipettes, filtered through a […] nylon mesh and centrifuged (500×g for 5 min). The pellet was resuspended, plated on 0.5 mg/ml poly-D-lysine-coated glass coverslips, and cells were grown in Neurobasal medium supplemented with 10% FBS, 2% B-27 supplement, 1% N-2 supplement, and 1% penicillin/streptomycin. Whole-cell patch clamp recordings in small-diameter DRG neurons (<55 μm) were conducted at room temperature using patch pipettes with resistances of 2-3 MD. […] The resting membrane potential was measured without a current injection.

The next experiment deals with melanoma-bearing mice. Briefly: Mouse melanoma model: spontaneous pain, von Frey test, CPP. Particulars: for spontaneous pain (licking/flinching) in melanoma-bearing mice: SSG 5 μg i.pl. The experiment is classed as in vivo.
The subject of the next experiment is mice. The experiment is described as follows: Tail-flick and hot-plate tests of morphine antinociception. It is filed as in vivo, mouse. Particulars: morphine 10 mg/kg s.c. Here is the method:
Tail-flick test. All animals were habituated to testing environment for at least 2 days before baseline testing. Mice were gently held by a hand with a terry glove and with tails exposed. The distal 3 cm of the tail was immersed into the 50° C. hot water. The tail-flick latency was the time required for a mouse to flick or remove its tail out of the water. A maximum cut-off value of 15 seconds was set to avoid thermal injury. Tail-flick latency was determined both before and after drug injection. Data are expressed as the maximum possible effect (MPE) calculated as MPE (%)=100×[(postdrug response baseline response)/(cutoff response−baseline response)]. The MPE (%) data from each animal were converted to area under the curve (AUC).
Hot-plate test. All animals were habituated to testing environment for at least 2 days before baseline testing. […] A maximum cut-off value of 40 seconds was set to avoid tissue injury. Data are expressed as the maximum possible effect (MPE) calculated as MPE (%)=100×[(postdrug response−baseline response)/(cutoff response−baseline response)]. The MPE (%) data from each animal were converted to area under the curve (AUC).

In experiment [5] the test system is small-diameter neurons of whole-mount DRG. The experiment is described as follows: Whole-cell patch clamp recordings in whole mount DRGs ex vivo. The note with it: WT whole mount DRG; sPD-1 30 ng/ml, Nivolumab 300 ng/ml. It is filed as cell-based, mouse. Here is the method: Whole-cell patch clamp recordings in whole mount DRGs of mice ex vivo. L4-L5 DRGs were carefully removed 4 days after sham surgery or CCI surgery and placed in cold oxygenated ACSF. The connective tissue was gently removed under a microscope and the ganglia were digested with a mixture of 0.4 mg/mL trypsin (Sigma) and 1.0 mg/ml type-A collagenase (Sigma) for 30 min at 37° C. The intact ganglia were then incubated in ACSF oxygenated with 95% O2 and 5% CO2 at 28° C. for at least 1 h before transferring them to the recording chamber. DRG neurons were visualized with a 40× water-immersion objective using a BX51WI microscope (Olympus). Whole-cell current and voltage recordings were acquired with an Axon700B amplifier. Patch pipettes (4-7 MO) were pulled from borosilicate glass capillaries on P-97 puller. The recording chamber (300 μl) was continuously superfused (3-4 ml/min). Series resistance was compensated for (>80%), and leak subtraction was performed. The pipette solution contained (in mM): 140 KCl, 2 MgCl2, 10 Hepes, 2 Mg-ATP, pH 7.4. Osmolarity was adjusted to 290-300 mOsm. Data was acquired with a Digidata 1322A acquisition system (molecular devices) using pCLAMP 9.0 software. Signals were low-pass filtered at 5 kHz, sampled at 10 kHz and analyzed offline.

Experiment [6] has as its system lamina 110 neurons in spinal cord slices. Briefly: Patch clamp recordings of sEPSCs in spinal cord slices. It is filed as cell-based, mouse. The note with it: PD-L1 30 ng/ml, sPD-1 30 ng/ml perfusion; Nivolumab 300 ng/ml, 3 h.
Experiment [7] concerns T cell, macrophage and inflammatory cytokine marker mRNA. The experiment is described as follows: Quantitative real-time RT-PCR of immune markers in melanoma-bearing hindpaw skin. The note with it: 3 h after sPD-1 treatment (5 μg, i.pl.), MCI-4w. A general note: In qPCR the cycle at which signal appears reflects the starting amount.
Setting [8] is: MCI-4w, sPD-1 5 μg i.pl., siRNA 2 μg peri-sciatic, Nivolumab 3-10 mg/kg i.v., RMP1-14 10 mg/kg i.v.
[9] abbreviates: i.pl., sPD-1 5 μg, RMP1-14 5 μg, Nivolumab 10 μg.

As for `O.O.O.O.O.O.O.O.O.O=C([O-])[C@@H]1[O][Sb]2([O-])([O][Sb]34([OH])[O][C@H]([C@H](O)CO)[C@H]([O]3)[C@H](C(=O)[O-])[O]4)[O][C@H]([C@H](O)CO)[C@@H]1[O]2.[Na+].[Na+].[Na+]` [SSG, sodium stibogluconate], in the experiment with naive mice (i.pl. SSG plus PD-L1, naive mice), the “effect on analgesic effect of PD-L1” value is listed as “abolished”. Moreover, the “effect on PD-L1-induced inhibition of sodium currents” value in [1] is given as “partially blocked”; in [4], “completely blocked”. For the same molecule, the “effect on PD-L1-induced SHP-1 phosphorylation” value in [2] is reported as “blocked”. Also, the “effect on PD-L1-induced RMP change” value in [3] (CHO cells co-expressing PD-1 and TREK2) is listed as “blocked”. In addition, the “effect on PD-L1 potentiation of TREK2 currents and Erev shift” value in experiment [3] (PD-1/TREK2 co-expressing CHO cells) is “abolished”. Besides, the “spontaneous pain (licking/flinching) in melanoma-bearing mice” value in the experiment on melanoma-bearing mice (setting [8]) is “elicited spontaneous pain”.
Regarding `CN1CC[C@]23c4c5ccc(O)c4O[C@H]2[C@@H](O)C=C[C@H]3[C@H]1C5` [morphine], the “analgesic effect of morphine after human IgG” value in the experiment with mice (human IgG i.v.) is reported as “typical analgesic effect”. For the same molecule, the “analgesic effect of morphine in Pd1−/− mice compared to WT” value in the experiment on mice was “reduced analgesic (antinociceptive) effect”.
Regarding “sPD-1: soluble PD-1 used to neutralize PD-L1; Mouse PD-1 from R&D (1021-PD-100)”, in the experiment with naive mice (setting [9]), the “duration of mechanical allodynia in naive mice” value is on record as 3 h and the “mechanical allodynia in naive mice” value is given as “transient mechanical allodynia”. Besides, the “spontaneous pain in naive mice” value with naive mice (sPD-1 5 μg i.pl.) is “without causing spontaneous pain”. Further, the “firing rate of action potentials” value in experiment [5] is given as “increased the firing rate”. Moreover, in [6], the “amplitude of spontaneous EPSCs (sEPSCs)” value is recorded as “not amplitude” and the “frequency of spontaneous EPSCs (sEPSCs)” value is listed as “increased sEPSC frequency”. For the same molecule, in the experiment with melanoma-bearing mice (setting [8]), the “mechanical allodynia in melanoma-bearing mice” value is recorded as “induced mechanical allodynia” and the “spontaneous pain (licking/flinching) in melanoma-bearing mice” value was “marked spontaneous pain”. Besides, the “conditioned place preference (CPP), ongoing pain” value in the experiment with melanoma-bearing mice (i.pl. sPD-1, two-chamber test) is on record as “marked CPP”. The “onset of spontaneous pain after injection” value with melanoma-bearing mice (sPD-1 5 μg i.pl., MCI-4w) lay in the range of 10 to 30 min. Also, the “mRNA levels of immune/inflammatory markers in hindpaw skin” value in experiment [7] was “did not alter”.
